Results reported in patent EP1290011B1 (Oncopeptides AB, priority 2000, dated 2001).
pIC50: −log10 of the molar value. Structures can show the parent of a compound that is named as a salt. Where two headings read alike, the source gives them in different places.

Columns and labels:
Assay in all cases: cells
[1] = system: panel of ten human tumour cell lines; format: cell-based; settings: read-out: MEAN IC50
[2] = system: H69; format: cell-based, human
[3] = system: ACHN; format: cell-based, human
[4] = system: CEM/R; format: cell-based, human
[5] = system: U937vcr; format: cell-based, human
[6] = system: H69AR; format: cell-based, human
[7] = system: 8226LR5; format: cell-based, human
[8] = system: CEM/S; format: cell-based, human
[9] = system: 8226Dox40; format: cell-based, human
[10] = system: U937gtb; format: cell-based, human
[11] = system: U1906L; format: cell-based
[12] = system: NCI-H23; format: cell-based
[13] = system: U1690; format: cell-based
[14] = system: U-1568; format: cell-based
[15] = system: U-1752; format: cell-based
[16] = system: NCI-H157; format: cell-based
[17] = system: U-1810; format: cell-based
[18] = system: NCI-H611; format: cell-based
[19] = system: hematological fresh human tumour specimens (PHTC); settings: 72 h, read-out: Tumour cell survival index % Hematological
[20] = system: NCI-H125; format: cell-based
[21] = system: U-1906E; format: cell-based
[22] = system: U1285; format: cell-based
[23] = system: solid tumour fresh human tumour specimens (PHTC); settings: 72 h, read-out: Tumour cell survival index % Solid
[24] = system: 8226S; format: cell-based, human
[25] = H69, small cell lung cancer, 72 hours incubation, read-out: IC50
[26] = ACHN, primary resistant renal carcinoma, 72 hours incubation, read-out: IC50
[27] = CEM/R, 72 hours incubation, read-out: IC50
[28] = U937vcr, vincristine resistance, 72 hours incubation, read-out: IC50
[29] = H69AR, doxorubicin resistance, 72 hours incubation, read-out: IC50
[30] = 8226LR5, melphalan resistance, 72 hours incubation, read-out: IC50
[31] = CEM/S, 72 hours incubation, read-out: IC50
[32] = 8226Dox40, doxorubicin resistance, 72 hours incubation, read-out: IC50
[33] = U937gtb, lymphoma, 72 hours incubation, read-out: IC50
[34] = 8226S, myeloma, 72 hours incubation, read-out: IC50

CCOC(=O)[C@H](Cc1ccc(N(CCCl)CCCl)cc1)NC(=O)[C@@H](N)Cc1ccc(N(CCCl)CCCl)cc1 [JV27, L-Melphalanyl-L-melphalan ethyl ester hydrochloride]
pIC50 ([1]; mean over the ten cell lines): 6.12
pIC50 [2, 25]: 6.54
pIC50 [3, 26]: 6.68
pIC50 [4, 27]: 7.00
pIC50 [5, 28]: 6.59
pIC50 [6, 29]: 5.85
pIC50 [7, 30]: 5.61
pIC50 [8, 31]: 6.85
pIC50 [9, 32]: 5.80
pIC50 [10, 33]: 6.80

COc1cccc2c1C(=O)c1c(O)c3c(c(O)c1C2=O)C[C@@](O)(C(=O)CO)C[C@@H]3O[C@H]1C[C@H](N)[C@H](O)[C@H](C)O1 [Doxorubicin, doxorubicin]
pIC50 ([1]; Homo sapiens): 5.45
pIC50 [11]: 6.04
pIC50 ([12]; Homo sapiens, NCI-H23): 6.85
pIC50 ([2]; Homo sapiens, NCI-H69, 72 h): 5.78
pIC50 [13]: 5.66
pIC50 ([3]; Homo sapiens, ACHN, 72 h): 4.85
pIC50 ([4]; Homo sapiens, 72 h): 5.88
pIC50 ([5]; Homo sapiens, 72 h): 6.38
pIC50 ([6]; Homo sapiens, H69AR, 72 h): 4.94
pIC50 ([7]; Homo sapiens, 72 h): 6.26
pIC50 ([8]; Homo sapiens, 72 h): 6.74
pIC50 [14]: 3.74
pIC50 [15]: 6.38
pIC50 ([16]; Homo sapiens, NCI-H157): 6.70
pIC50 ([17]; U-1810): 4.64
pIC50 [18]: 3.74
pIC50 ([9]; Homo sapiens, 72 h): 5.30
viability at 0.92 µM [19]: 29%
pIC50 ([20]; Homo sapiens, NCI-H125): 6.30
pIC50 [21]: 6.36
pIC50 [22]: 6.28
pIC50 ([10]; Homo sapiens, U-937/GTB, 72 h): 6.96
viability at 0.92 µM [23]: 97%
pIC50 ([24]; Homo sapiens, 72 h): 6.89

N.N.[Cl][Pt][Cl] [Cisplatin, cisplatin, reference compound]
pIC50 [1]: 4.74
pIC50 ([12]; read-out: IC50): 4.94
pIC50 ([2]; read-out: IC50): 4.03
pIC50 ([13]; read-out: IC50): 5.17
pIC50 ([3]; read-out: IC50): 4.75
pIC50 ([4]; read-out: IC50): 5.73
pIC50 ([5]; read-out: IC50): 5.52
pIC50 ([6]; read-out: IC50): 4.87
pIC50 ([7]; read-out: IC50): 4.79
pIC50 ([8]; read-out: IC50): 5.60
pIC50 ([14]; read-out: IC50): 4.63
pIC50 ([15]; read-out: IC50): 4.93
pIC50 ([16]; read-out: IC50): 4.57
pIC50 ([17]; read-out: IC50): 4.99
pIC50 ([18]; read-out: IC50): 4.29
pIC50 ([20]; read-out: IC50): 5.15
pIC50 ([21]; read-out: IC50): 4.68
pIC50 ([22]; read-out: IC50): 5.53
pIC50 ([24]; read-out: IC50): 4.83

CC(=O)O[C@@]12CO[C@@H]1C[C@H](O)[C@@]1(C)C(=O)[C@H](O)C3=C(C)[C@@H](OC(=O)[C@H](O)[C@@H](NC(=O)OC(C)(C)C)c4ccccc4)C[C@@](O)([C@@H](OC(=O)c4ccccc4)[C@H]21)C3(C)C [Docetaxel, docetaxel]
pIC50 [11]: 7.00
pIC50 ([12]; Homo sapiens, NCI-H23): 5.82
pIC50 [13]: 5.11
pIC50 [14]: 5.23
pIC50 [15]: 6.34
pIC50 ([16]; Homo sapiens, NCI-H157): 7.00
pIC50 ([17]; U-1810): 7.00
pIC50 [18]: 5.96
pIC50 ([20]; Homo sapiens, NCI-H125): 6.80
pIC50 [21]: 7.00
pIC50 [22]: 7.00
viability at 6.2 µM [23]: 67%

CCOC(=O)[C@H](Cc1ccc(O)cc1)NC(=O)[C@@H](N)Cc1ccc(N(CCCl)CCCl)cc1 [JV24, L-Helphalanyl-L-tyrosine ethyl ester hydrochloride]
pIC50 [1]: 5.98
pIC50 ([2]; read-out: IC50): 7.10
pIC50 ([3]; read-out: IC50): 6.49
pIC50 ([4]; read-out: IC50): 7.52
pIC50 ([5]; read-out: IC50): 6.68
pIC50 ([6]; read-out: IC50): 6.32
pIC50 ([7]; read-out: IC50): 5.60
pIC50 ([8]; read-out: IC50): 7.30
pIC50 ([9]; read-out: IC50): 5.26
pIC50 ([10]; read-out: IC50): 6.70
pIC50 ([24]; read-out: IC50): 5.95

CCOC(=O)[C@H](Cc1ccc(OC)cc1)NC(=O)[C@@H](N)Cc1ccc(N(CCCl)CCCl)cc1 [JV25, L-Melphalanyl-L-p-methoxyphenylalanine ethyl ester hydrochloride]
pIC50 ([1]; mean over the ten cell lines): 6.34
pIC50 [2, 25]: 7.40
pIC50 [3, 26]: 6.70
pIC50 [4, 27]: 7.70
pIC50 [5, 28]: 6.80
pIC50 [6, 29]: 6.55
pIC50 [7, 30]: 5.74
pIC50 [8, 31]: 7.40
pIC50 [9, 32]: 5.92
pIC50 [10, 33]: 6.82
pIC50 [24, 34]: 6.19

COc1cc([C@@H]2c3cc4c(cc3[C@@H](O[C@@H]3O[C@@H]5CO[C@@H](C)O[C@H]5[C@H](O)[C@H]3O)[C@H]3COC(=O)[C@H]23)OCO4)cc(OC)c1O [Etoposide, etoposide]
viability at 8.5 µM [19]: 47%
viability at 8.5 µM [23]: 81%

CC[C@@]1(O)C(=O)OCc2c1cc1n(c2=O)Cc2cc3c(CN(C)C)c(O)ccc3nc2-1 [Topotecan, topotecan, reference compound]
pIC50 ([1]; Homo sapiens): 4.70
pIC50 [11]: 6.92
pIC50 ([12]; Homo sapiens, NCI-H23): 5.23
pIC50 ([2]; Homo sapiens, NCI-H69, 72 h): 5.76
pIC50 [13]: 6.04
pIC50 ([3]; Homo sapiens, ACHN, 72 h): 4.79
pIC50 ([4]; Homo sapiens, 72 h): 7.70
pIC50 ([5]; Homo sapiens, 72 h): 7.70
pIC50 ([6]; Homo sapiens, H69AR, 72 h): 3.74
pIC50 ([7]; Homo sapiens, 72 h): 6.68
pIC50 ([8]; Homo sapiens, 72 h): 7.70
pIC50 [14]: 3.94
pIC50 [15]: 4.55
pIC50 ([16]; Homo sapiens, NCI-H157): 5.36
pIC50 ([17]; U-1810): 7.10
pIC50 [18]: 3.63
pIC50 ([9]; Homo sapiens, 72 h): 6.23
pIC50 ([20]; Homo sapiens, NCI-H125): 3.63
pIC50 [21]: 7.10
pIC50 [22]: 6.77
pIC50 ([10]; Homo sapiens, U-937/GTB, 72 h): 7.70
pIC50 ([24]; Homo sapiens, 72 h): 6.06

O=c1[nH]cc(F)c(=O)[nH]1 [Example 5-FU, 5-FU, reference compound]
pIC50 ([1]; mean over the ten cell lines): 3.49
pIC50 [2, 25]: 3.11
pIC50 [3, 26]: 3.11
pIC50 [4, 27]: 4.35
pIC50 [5, 28]: 3.24
pIC50 [6, 29]: 3.11
pIC50 [7, 30]: 5.28
pIC50 [8, 31]: 4.24
pIC50 [9, 32]: 4.22
pIC50 [24, 34]: 4.12

CCC1=C[C@@H]2CN(C1)Cc1c([nH]c3ccccc13)[C@@](C(=O)OC)(c1cc3c(cc1OC)N(C)[C@H]1[C@@](O)(C(=O)OC)[C@H](OC(C)=O)[C@]4(CC)C=CCN5CC[C@]31[C@@H]54)C2 [Vinorelbine, vinorelbine]
viability at 3.1 µM [19]: 50%
viability at 3.1 µM [23]: 73%

CCOC(=O)[C@H](Cc1ccccc1)NC(=O)[C@@H](N)Cc1ccc(N(CCCl)CCCl)cc1 [JV22, L-Melphalanyl-L-phenylalanine ethyl ester hydrochloride]
pIC50 [1]: 6.32
pIC50 ([2]; read-out: IC50): 7.40
pIC50 ([3]; read-out: IC50): 6.77
pIC50 ([4]; read-out: IC50): 8.00
pIC50 ([5]; read-out: IC50): 6.89
pIC50 ([6]; read-out: IC50): 6.41
pIC50 ([7]; read-out: IC50): 5.73
pIC50 ([8]; read-out: IC50): 7.70
pIC50 ([9]; read-out: IC50): 5.86
pIC50 ([10]; read-out: IC50): 6.85
pIC50 ([24]; read-out: IC50): 6.17

CC[C@]1(O)C[C@H]2CN(CCc3c([nH]c4ccccc34)[C@@](C(=O)OC)(c3cc4c(cc3OC)N(C=O)[C@H]3[C@@](O)(C(=O)OC)[C@H](OC(C)=O)[C@]5(CC)C=CCN6CC[C@]43[C@@H]65)C2)C1 [Vincristine, vincristine, reference compound]
pIC50 ([1]; Homo sapiens): 4.52
pIC50 ([2]; Homo sapiens, NCI-H69, 72 h): 4.16
pIC50 ([3]; Homo sapiens, ACHN, 72 h): 3.96
pIC50 ([4]; Homo sapiens, 72 h): 8.00
pIC50 ([5]; Homo sapiens, 72 h): 7.10
pIC50 ([6]; Homo sapiens, H69AR, 72 h): 3.92
pIC50 ([7]; Homo sapiens, 72 h): 7.10
pIC50 ([8]; Homo sapiens, 72 h): 7.10
pIC50 ([9]; Homo sapiens, 72 h): 6.05
viability at 3 µM [19]: 39%
pIC50 ([10]; Homo sapiens, U-937/GTB, 72 h): 8.00
viability at 3 µM [23]: 93%
pIC50 ([24]; Homo sapiens, 72 h): 8.00

CCOC(=O)[C@H](Cc1ccc(N)cc1)NC(=O)[C@@H](N)Cc1ccc(N(CCCl)CCCl)cc1 [JV29, L-Me3phalariyl-L-p-aminophenylalanine ethyl ester hydrochloride]
pIC50 ([1]; mean over the ten cell lines): 6.17
pIC50 [2, 25]: 7.05
pIC50 [3, 26]: 6.72
pIC50 [4, 27]: 7.52
pIC50 [5, 28]: 6.72
pIC50 [6, 29]: 6.34
pIC50 [7, 30]: 5.56
pIC50 [8, 31]: 7.22
pIC50 [9, 32]: 5.70
pIC50 [10, 33]: 6.82
pIC50 [24, 34]: 6.05

Nc1ccn([C@@H]2O[C@H](CO)[C@@H](O)[C@@H]2O)c(=O)n1 [AraC]
viability at 10.3 µM [23]: 102%

CCOC(=O)[C@H](Cc1ccc([N+](=O)[O-])cc1)NC(=O)[C@@H](N)Cc1ccc(N(CCCl)CCCl)cc1 [JV26, L-Malphalanyl-L-p-nitrophenylalanine ethyl ester hydrochloride]
pIC50 ([1]; mean over the ten cell lines): 6.21
pIC50 [2, 25]: 7.22
pIC50 [3, 26]: 6.66
pIC50 [4, 27]: 7.52
pIC50 [5, 28]: 6.59
pIC50 [6, 29]: 6.29
pIC50 [7, 30]: 5.70
pIC50 [8, 31]: 7.30
pIC50 [9, 32]: 5.76
pIC50 [10, 33]: 6.64
pIC50 [24, 34]: 5.98
